{
  "source": "patent US11213560B2",
  "about": "“Method of promoting wound healing with sinetirucallol” (NATIONAL DONG HWA UNIVERSITY, priority 2015, dated 2022)",
  "key": {"p-ERK": {"test_system": "p-ERK", "experiment": "Western blot of phosphorylated ERK in LPS-induced RAW264.7 cells", "type": "cell-based, murine", "conditions": "LPS 1 μg/mL, 12 h; extract 5-100 μg/mL or SI 0.1-10 μM; dose-dependent manner", "procedure": "(§1) The RAW264.7 murine macrophage cell line was purchased from the Bioresource Collection and Research Center (BCRC, Taiwan). The cells were incubated at 37° C. in 5% CO2 in Dulbecco's modified Eagle's medium (DMEM; Gibco Inc., NY, USA) supplemented with 100 U/mL penicillin, 100 μg/mL sodium pyruvate and 10% fetal bovine serum (FBS; Gibco Inc.).\n(§2) The cells were also treated with 0.01% DMSO as a vehicle control. The cells were seeded into 12-well plates at a density of 6×10^5 cells/well in 24 h then incubated with 0.1% BSA with serum-free medium 3 h, treated with […]\n(§3) The concentrations of proteins from whole-cell lysates were determined by Bradford assay. Equal amounts of protein were separated by SDS-PAGE and transferred onto nitrocellulose membranes. […] With the use of horseradish peroxidase-conjugated secondary anti-rabbit or anti-mouse antibody, bound antibodies were detected by enhanced chemiluminescence. The signals were monitored using Western Lightning™ Plus-ECL (Perkin Elmer Life Sciences) and the PVDF membrane was exposed to Luminescent image analyzer LAS-3000 (Fujifilm, Minato, Tokyo, Japan). Acquired data were analyzed and compared the difference among treatments."}, "[1]": {"test_system": "CFA-induced inflammation mice", "experiment": "CFA-induced paw inflammation in mice, swelling index", "type": "in vivo, C57BL/6 mice"}, "NFκB": {"test_system": "NFκB", "experiment": "Western blot of NFκB in LPS-induced RAW264.7 cells", "type": "cell-based, murine", "conditions": "LPS 1 μg/mL, 12 h; extract 5-100 μg/mL or SI 0.1-10 μM; dose-dependent manner", "procedure": "as §1, §2, §3"}, "RAW 264.7 cells": {"test_system": "RAW 264.7 cells", "experiment": "MTT cell viability of RAW264.7 cells (Example 2)", "type": "cell-based, murine", "conditions": "extract 5, 20, 50, 100 μg/mL or sinetirucallol 0.1, 1, 5, 10 μM for 24 h", "procedure": "as §1\nIn order to examine the bio-compatibility of the extract of the present disclosed composition, a MTT assay (3-(4,5-dimethylthiazol-2-yl)-2,5-diphenyltetrazolium bromide (MTT, Invitrogen), a colorimetric based assay) was performed.\nBriefly, 8×10^3 of cells per well were seeded in 96-well plates and were incubated in 5% CO2 at 37° C. for overnight. Cells were treated different concentrations (5, 20, 50, and 100 μg/mL) of Spiranthes sinensis extract for 24 h, after incubation 20 μL (5 mg/mL) of MTT solution was added per well and further incubated for 4 h. The media was removed, and formazan was solubilized by adding 100 μl/well of DMSO (Sigma-Aldrich) and OD was measured at 570 nm using a microplate reader (ELISA reader, Thermo Labsystems). Percentage of viable cells was estimated by comparing with untreated control cells. The average absorbance value of the control cells was taken as 100% viability."}, "[2]": {"test_system": "LPS-induced RAW 264.7 cells", "experiment": "Real-time PCR of inflammatory cytokine transcription in LPS-induced RAW 264.7 cells", "type": "cell-based, murine", "conditions": "LPS 1 μg/mL; 5 μM SI (tested 0.1, 1, 5, 10 μM)", "procedure": "as §1\nThe cells were also treated with 0.01% DMSO as a vehicle control. The cells were seeded into 12-well plates at a density of 6×10^5 cells/well in 24 h then incubated with 0.1% BSA with serum-free medium 3 h, treated with different concentrations of Spiranthes sinensis extract or SI then incubated in the presence of LPS (1 μg/mL) for 4 h.\nTotal RNA was prepared from freshly harvested RAW 264.7 cells and was isolated using Trizol extraction. RNA samples were frozen at −80° C. until analyzed. cDNA was then made using an M-MLV RT kit (Invitrogen, Carlsbad, Calif.) according to the manufacturer's protocol. The expression of selected cytokine and related genes in mouse tissue and in RAW264.7 cells exposed to the present Spiranthes sinensis extract was determined by the SensiFAST SYBR No-ROX Kit (BIOLINE, London, UK), as described previously. PCR cycling conditions for TNF-Alpha included a 95° C. heating step for 2 min at the beginning of every run. […] In order to quantify expression represented by each of the PCR products, an internal reference by β-actin."}, "COX-2": {"test_system": "COX-2", "experiment": "Western blot of COX-2 in LPS-induced RAW264.7 cells", "type": "cell-based, murine", "conditions": "LPS 1 μg/mL, 12 h; extract 5-100 μg/mL or SI 0.1-10 μM; dose-dependent manner", "procedure": "as §1, §2, §3"}, "[3]": {"test_system": "LPS-induced RAW264.7 cells", "experiment": "Nitrite quantification of NO production in LPS-induced RAW264.7 cells", "type": "cell-based, murine", "conditions": "LPS 1 μg/mL 12 h; extract 5, 20, 50, 100 μg/mL or SI 0.1, 1, 5, 10 μM; dose-dependent manner", "procedure": "as §1, §2\nNO production from activated RAW 264.7 cells was determined by measuring the amount of nitrite, a stable oxidation product of NO. An aliquot of the conditioned medium was mixed with an equal volume of 1% sulfanilamide in water and 0.1% N-1-naphthylethylenediamine dihydrochloride in 5% phosphoric acid. The absorbance was determined at 550 nm. Sodium nitrite, diluted in culture media at concentrations of 10-100 μM, was used to generate a standard curve."}},
  "data": [
    {"smiles": "C[C@H](CC[C@@H]1CC1(C)C)[C@H]1CC[C@@]2(C)C3CCC4C(C)(C)[C@H](O)CC[C@@]4(C)C3=CC[C@]12C", "note": "(stereo partly drawn) [sinetirucallol]", "values": [
      {"measurement": "LPS-induced phosphorylation of ERK", "setting": "p-ERK", "value": "diminished"},
      {"measurement": "anti-inflammatory effect, low versus high dose", "setting": "[1]; 0.44 μg/kg SI compared with 4.4 μg/kg SI", "value": "better effect than that of 4.4 μg/kg SI"},
      {"measurement": "foot swelling recovery compared with 0.3 mg/kg triamcinolone", "setting": "[1]; SI group (4.4, 2.2, 0.44 μg/kg i.p.)", "value": "less foot swelling recovery than that of 0.3 mg/kg triamcinolone"},
      {"measurement": "anti-inflammatory effect (swelling index of foot)", "setting": "[1]; intraperitoneal injection 3 times Day 0 to Day 2, extract 0.5, 0.3, 0.06 mg/kg b.w, SI 4.4, 2.2, 0.44 μg/kg, compared with CFA group", "value": "much better than that of Spiranthes sinensis extract"},
      {"measurement": "LPS-induced expression of NFκB", "setting": "NFκB", "value": "diminished"},
      {"measurement": "Cell viability (MTT assay)", "setting": "RAW 264.7 cells", "value": "not affected"},
      {"measurement": "inhibition of inflammatory cytokine transcription", "setting": "[2]", "value": "better inhibition"},
      {"measurement": "LPS-induced expression of COX-2", "setting": "COX-2", "value": "diminished"},
      {"measurement": "NO production (nitrite)", "setting": "[3]", "value": "inhibitory effect"}
    ]}
  ]
}
